From patent US20160106106A1, “DRUG-RESISTANT MICROBE AND VARIANT MICROBE DISINFECTANT CONTAINING CHLOROUS ACID AQUEOUS SOLUTION” (HONBU SANKEI CO., LTD., priority 2013, published 2016)
Like-named read-outs stand apart in the source and are kept apart here.

Tests used:
[1] = test system: contaminating microbes in urine (MDRP); assay: Growth suppressing effect against contaminating microbes in urine (MDRP); type: cell-based, Pseudomonas aeruginosa; conditions: 10 ppm, 50 ppm, 100 ppm, FIGS. 5 and 6
Method: (§1) The testing method was in accordance with the above-described Examples. The samples prepared as stated above were used.
(§2) Tests were conducted twice using similar samples.

MRSA = assay: Growth suppressing effect against contaminating microbes in urine (MRSA); type: cell-based, Staphylococcus aureus; conditions: 10 ppm, 50 ppm, 100 ppm, FIG. 6
Method: as §1, §2

[2] = test system: Escherichia coli O157 sakai strain (1996, RIMD0509952) on chicken meat (breast meat)
[3] = test system: Campylobacter jejuni JCM2013 on chicken meat (breast meat)
Method: 1) Enterohemorrhagic Escherichia coli O157: Escherichia coli O157 sakai strain (1996, RIMD0509952) 2) Campylobacter: Campylobacter jejuni JCM2013
2) Campylobacter: Campylobacter jejuni JCM2013 (selected medium: CCDA plate medium)
The selected medium was streaked. A single colony of tested microbes cultured for 48 hours at 37° C. in microaerophilic conditions was extracted with a platinum loop. The colony was then inoculated in a 50 mL×3 BHI medium, shaken and cultured under aerobic conditions for 48 hours at 37° C. (shake rate: 100 rpm).
Chicken meat (breast meat): About 2 kg of domestic (location unknown) chicken breast meat that was purchased the day before the tests was used.
Each cultured microbial solution was centrifuged (rate of centrifugation: 6000 rpm). The liquid medium of the supernatant was disposed. Then, the microbial solution prepared by diluting with sterilized saline to approximately 10^7 was put into a manually operated spray in the same amount to make a 10^6 microbe suspension.

[4] = test system: Microbes of the genus Paenibacillus; assay: Microbe disinfecting effect on microbes isolated from isolator, Paenibacillus; type: cell-based; conditions: average ± S.D.
Method: (§3) In the present Example, since the isolator for raising microbe-free mice was contaminated by environmental microbes, microbes were isolated from the isolator, and microbe disinfecting effects were examined in vitro using various antiseptics of interest.
(§4) Three species of microbes were isolated to analyze 16SrDNA.
(§5) (1) A single colony of each isolated microbe that was cultured in a BHI agar medium was cultured for two days at 37° C. in 5 mL of BHI medium. (2) After collecting microbes by centrifuging (3000×g, 4° C., 10 min) the culturedmicrobial solution, the microbes were washed twice with sterile saline (0.85%) to prepare a microbial solution of about 10^7 CFU/ml (Inoculam value). (3) Each agent of interest was prepared by diluting with sterile ion exchange water to have a predetermined concentration. 9 mL of each diluent was dispensed into a sterilized test tube. (4) 1 mL of the microbial solution prepared in (2) was added to the agent-containing test tube. A vortex mixer was used to mix well. (5) 1 mL was sampled from the test tube of (4) at a predetermined time. The sampling was added to and mixed with 0.05 mol/L sodium thiosulfate solution for neutralization. (6) 1 mL of the solution after the neutralization treatment was spread on a petri dish. The solution was pour-plate cultured for 24 hours at 37° C. in a BHI agar medium. The number of surviving microbes that had grown was measured.
(§6) The operation was performed three times, and microbial disinfection was evaluated by average value±standard deviation (S. D.)

[5] = test system: Microbes of the genus Bacillus; assay: Microbe disinfecting effect on microbes isolated from isolator, Bacillus; type: cell-based; conditions: average ± S.D.
Method: as §3, §4
as §5, with “(2) After collecting microbes by centrifuging (3000×g, 4° C., 10 min) the culturedmicrobial solution, the microbes were washed twice with sterile saline (0.85%) to prepare a microbial solution of about 10^7 CFU/ml (Inoculam value).” left out
as §6

[6] = Sampling 3: after soaking 30 minutes at 400 ppm, raw material:liquid = 1:10
[7] = Sampling 4: after soaking 30 minutes at 400 ppm, washing and draining
[8] = Sampling 5: after soaking 30 minutes at 400 ppm, washing, storage for 24 hours at 4° C.

Molecule: OCl [Sodium hypochlorite]
- growth suppressing effect [1]: growth suppressing effect
- growth suppressing effect (MRSA): growth suppressing effect
- number of E. coli O-157 on the chicken meat [2, 6]: 3.3 × 10^4 cfu/mL
- number of E. coli O-157 on the chicken meat [2, 7]: 1.6 × 10^4 cfu/mL
- number of E. coli O-157 on the chicken meat [2, 8]: 5.0 × 10^4 cfu/mL
- number of Campylobacter on the chicken meat [3, 6]: 2.5 × 10^5 cfu/mL
- number of Campylobacter on the chicken meat [3, 7]: 3.2 × 10^5 cfu/mL
- number of Campylobacter on the chicken meat [3, 8]: 4.8 × 10^5 cfu/mL
- number of surviving microbes ([4]; 200 ppm, 5 min): 4.80 ± 0.25 log10 cfu/mL
- number of surviving microbes ([4]; 200 ppm, 10 min): 4.86 ± 0.41 log10 cfu/mL
- number of surviving microbes ([4]; 200 ppm, 30 min): 3.75 ± 0.53 log10 cfu/mL
- number of surviving microbes ([4]; 500 ppm, 5 min): 4.07 ± 0.12 log10 cfu/mL
- number of surviving microbes ([4]; 500 ppm, 10 min): 3.61 ± 0.09 log10 cfu/mL
- number of surviving microbes ([4]; 500 ppm, 30 min): 3.61 ± 0.26 log10 cfu/mL
- number of surviving microbes ([4]; 1000 ppm, 5 min): <2.00 log10 cfu/mL
- number of surviving microbes ([4]; 1000 ppm, 10 min): <2.00 log10 cfu/mL
- number of surviving microbes ([4]; 1000 ppm, 30 min): <2.00 log10 cfu/mL
- number of surviving microbes ([5]; 200 ppm, 5 min): 5.60 ± 0.22 log10 cfu/mL
- number of surviving microbes ([5]; 200 ppm, 10 min): 5.53 ± 0.62 log10 cfu/mL
- number of surviving microbes ([5]; 200 ppm, 30 min): 5.34 ± 0.34 log10 cfu/mL
- number of surviving microbes ([5]; 500 ppm, 5 min): 5.55 ± 0.45 log10 cfu/mL
- number of surviving microbes ([5]; 500 ppm, 10 min): 5.49 ± 0.28 log10 cfu/mL
- number of surviving microbes ([5]; 500 ppm, 30 min): 4.85 ± 0.32 log10 cfu/mL
- number of surviving microbes ([5]; 1000 ppm, 5 min): 3.55 ± 0.46 log10 cfu/mL

Molecule: Sodium chlorite
- growth suppressing effect [1]: growth suppressing effect
- growth suppressing effect (MRSA): growth suppressing effect
